Laboratory results reported in patent US7585859B2, “PDE4B inhibitors and uses therefor” (Plexxikon, Inc., priority 2004, dated 2009).
Where two headings read alike, the source gives them in different places.

How the values were obtained:
[1] = system: TNFα levels in serum of LPS-challenged rats; assay: Rat inhibition studies: serum TNFα after iv LPS challenge; format: in vivo; details: read-out: % inhibition r TNFα
Protocol: All studies were done with male rats CD (SD) IGS BR (Crl) (Charles River, France), which were grouped in to 5 animal groups.
At the end of the acclimatization period, the non-fasted rats were weighed, individually identified on the tail with a permanent marker and administered by oral (po) or interperitoneal (ip) route with either vehicle, reference or test compound in a volume of 10 mL/kg adapted to the body weight. The animals were gathered in groups of 5 animals in a polystyrene labeled cage with sawdust covered floors. 2-hours after vehicle, reference or test substance administration, rats received an intravenous (iv) injection of 0.1 mg/kg LPS in a volume of 1 mL/kg of body weight. 2 h after LPS challenge (or as indicated in Tables 3B and 4B), blood samples were collected into tubes without anticoagulant by retro-orbital puncture under gas (isoflurane) anesthesia. Samples were allowed to clot at room temperature for 5 to 10 min then put on ice until there were prepared by centrifugation (6000×g for 3 min at 4° C.) and stored at −20° C. until use. TNFα levels were measured in serum samples in duplicate by ELISA technique according to the manufacturer's procedure (Rat TNFα kit Quantikine M (RTA00, R&D System, France)). Data are reported as percent decrease in observed TNFα levels versus TNFa levels observed for vehicle dosed animal groups.

[2] = biological target: T1, full-length human PDE4B2 isozyme (Homo sapiens, UniProt Q07343); assay: PDE4 IC50 determination by Scintillation Proximity Assay, PDE4B2; format: biochemical; details: Table 1B, Formula I compounds; read-out: IC50 PDE4B2
T1 construct: The full-length human PDE4B2 isozyme; His6 (N); TEV cleavage site (N); made in house; host or cells: baculovirus infected insect cells (unpurified lysate)
T1 sequence (Q07343 1-564 isoform Q07343-2): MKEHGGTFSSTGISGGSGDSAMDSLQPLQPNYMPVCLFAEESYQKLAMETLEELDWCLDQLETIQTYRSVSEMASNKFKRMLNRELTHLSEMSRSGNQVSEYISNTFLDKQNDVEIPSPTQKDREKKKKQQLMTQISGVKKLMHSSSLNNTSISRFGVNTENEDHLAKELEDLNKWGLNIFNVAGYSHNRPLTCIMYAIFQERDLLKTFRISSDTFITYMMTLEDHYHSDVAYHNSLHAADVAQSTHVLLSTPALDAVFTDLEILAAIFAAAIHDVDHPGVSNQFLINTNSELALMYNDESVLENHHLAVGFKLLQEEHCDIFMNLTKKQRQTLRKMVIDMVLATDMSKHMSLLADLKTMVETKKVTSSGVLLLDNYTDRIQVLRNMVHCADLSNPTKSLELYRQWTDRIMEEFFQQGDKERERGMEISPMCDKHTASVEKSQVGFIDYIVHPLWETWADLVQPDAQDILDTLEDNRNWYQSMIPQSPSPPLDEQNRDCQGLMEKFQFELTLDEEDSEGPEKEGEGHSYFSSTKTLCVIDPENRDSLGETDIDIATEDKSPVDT
Summary of the method: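 Unpurified His6-TEV-tagged full-length human PDE4B2 from baculovirus-infected insect cell lysate (2.5 μl of 50% glycerol stock/ml) hydrolysed [3H]cAMP in 50 mM Tris pH 7.5, 8.3 mM MgCl, 1.7 mM EGTA, 0.01% BSA for 30 min at 30°. Stopped with SPA beads in 18 mM ZnSO4; [3H]AMP scintillation counted, IC50 by non-linear regression.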

PDE4D = biological target: T2, PDE4D (Homo sapiens, UniProt Q08499); assay: PDE4 IC50 determination by Scintillation Proximity Assay, PDE4D; format: biochemical
T2 construct: PDE4D: The catalytic domain of human PDE4B from S3 16-V692; His6 (N); thrombin cleavage site (N); made in house; host or cells: E. coli
T2 sequence (Q08499 380-756): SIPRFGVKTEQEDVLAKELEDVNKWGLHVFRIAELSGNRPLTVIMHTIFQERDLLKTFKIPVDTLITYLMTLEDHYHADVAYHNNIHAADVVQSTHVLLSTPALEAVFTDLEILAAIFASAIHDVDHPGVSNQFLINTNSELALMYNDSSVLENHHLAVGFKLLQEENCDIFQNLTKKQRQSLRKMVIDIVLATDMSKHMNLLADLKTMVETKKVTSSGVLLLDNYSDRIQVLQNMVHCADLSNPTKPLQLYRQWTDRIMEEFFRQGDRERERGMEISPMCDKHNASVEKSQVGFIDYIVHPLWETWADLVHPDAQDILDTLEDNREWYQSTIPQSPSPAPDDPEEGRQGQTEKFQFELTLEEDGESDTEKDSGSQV
Summary of the method: (§1)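 Scintillation counts reflected [^3H]AMP captured on yttrium silicate SPA beads after enzyme hydrolysed [^3H]cAMP for 30 min at 30°. PDE4B was used at 80 ng/ml and PDE4D at 4 ng/ml. IC50 values came from non-linear regression.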

[3] = biological target: T3, full-length human PDE4D5 isozyme (Homo sapiens, UniProt Q08499); assay: PDE4 IC50 determination by Scintillation Proximity Assay, PDE4D5; format: biochemical; details: Table 1B, Formula I compounds; read-out: IC50 PDE4D5
T3 construct: The full-length human PDE4D5 isozyme; His6 (N); TEV cleavage site (N); made in house; host or cells: baculovirus infected insect cells (unpurified lysate)
T3 sequence (Q08499 1-745 isoform Q08499-6): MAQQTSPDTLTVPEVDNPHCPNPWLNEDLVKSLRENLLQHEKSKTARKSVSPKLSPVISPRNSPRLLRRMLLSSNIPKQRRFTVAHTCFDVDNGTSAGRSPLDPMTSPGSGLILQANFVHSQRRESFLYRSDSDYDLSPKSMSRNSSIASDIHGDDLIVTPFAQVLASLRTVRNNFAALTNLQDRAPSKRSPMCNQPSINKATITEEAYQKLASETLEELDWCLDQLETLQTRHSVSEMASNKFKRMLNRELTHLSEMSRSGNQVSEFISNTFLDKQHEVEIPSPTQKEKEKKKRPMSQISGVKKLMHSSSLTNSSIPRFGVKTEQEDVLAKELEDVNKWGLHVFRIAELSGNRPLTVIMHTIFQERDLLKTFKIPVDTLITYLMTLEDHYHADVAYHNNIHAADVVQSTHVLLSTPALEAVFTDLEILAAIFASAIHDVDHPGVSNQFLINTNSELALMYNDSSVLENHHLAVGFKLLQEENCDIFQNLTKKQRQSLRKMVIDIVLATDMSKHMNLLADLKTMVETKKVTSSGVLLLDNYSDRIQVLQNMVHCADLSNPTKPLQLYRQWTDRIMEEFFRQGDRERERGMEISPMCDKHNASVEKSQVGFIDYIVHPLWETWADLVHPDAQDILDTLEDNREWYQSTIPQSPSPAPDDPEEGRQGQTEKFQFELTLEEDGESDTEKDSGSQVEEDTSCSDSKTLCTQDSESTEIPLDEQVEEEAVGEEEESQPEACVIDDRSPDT
Summary of the method: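 Unpurified His6-tagged full-length human PDE4D5 from baculovirus-infected insect cell lysate, 0.083 μl glycerol stock/ml, hydrolysed [3H]cAMP in Tris pH 7.5/MgCl/EGTA buffer, 30 min at 30°. ZnSO4/SPA beads stop; [3H]AMP counted. Controls: DMSO and roflumilast; 11-point duplicate curves, nonlinear-regression IC50.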

[4] = biological target: T4, PDE4B: The catalytic domain of human PDE4B from S152-S528 (Homo sapiens, UniProt Q07343); assay: PDE4 IC50 determination by Scintillation Proximity Assay, PDE4B; format: biochemical
T4 construct: His6 (N); thrombin cleavage site (N); made in house; host or cells: E. coli
T4 sequence (Q07343 with tags, fused parts or gaps): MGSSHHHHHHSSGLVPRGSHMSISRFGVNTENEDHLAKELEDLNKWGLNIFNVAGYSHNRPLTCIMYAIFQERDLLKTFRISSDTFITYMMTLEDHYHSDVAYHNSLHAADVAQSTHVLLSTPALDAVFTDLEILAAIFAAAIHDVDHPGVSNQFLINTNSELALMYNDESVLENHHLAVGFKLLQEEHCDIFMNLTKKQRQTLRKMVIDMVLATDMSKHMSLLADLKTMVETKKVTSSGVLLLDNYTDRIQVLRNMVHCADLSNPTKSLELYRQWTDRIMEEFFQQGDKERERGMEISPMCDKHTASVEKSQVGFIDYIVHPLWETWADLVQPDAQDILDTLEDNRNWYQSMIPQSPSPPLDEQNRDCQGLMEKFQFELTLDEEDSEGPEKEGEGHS
Summary of the method: as §1

[5] = Table 1B, Formula I compounds, read-out: IC50 PDE4D
[6] = Table 1B, Formula I compounds, read-out: IC50 PDE4B
[7] = po, 2 h, rat in vivo inhibition assay, 100 mg/kg po, 2 hr challenge delay
[8] = po, 1 h, rat, 100 mg/kg po, 1 hr challenge delay
[9] = po, 2 h, rat in vivo, 100 mg/kg po, 2 hr challenge delay, percent decrease in TNFα versus vehicle
[10] = second part of Table 2B (2-23 to 2-103), column 5, column is PDE4D in first part, read-out: IC 50 vs. indicated assay h TNFα
[11] = second part of Table 2B (2-23 to 2-103), column 3, column is PDE4B in first part, read-out: IC 50 vs. indicated assay h TNFα
[12] = po, 1 h, rat in vivo, 100 mg/kg po, 1 hr

SMILES	IC50 [2]	IC50 (PDE4D; [5])	IC50 [3]	IC50 [4, 6]	inhibition in vivo at 100 mg/kg [1, 7]	IC50 (PDE4D; [10])	IC50 [4, 11]	also measured
Cc1ccc(C(=O)c2sc(Nc3ccccc3)c(C#N)c2N)cc1 [Compound 1-29, 4-Amino-5-(4-methyl-benzoyl)-2-phenylamino-thiophene-3-carbonitrile]	< 10 µM	< 10 µM	< 10 µM	< 10 µM	–	–	–	inhibition in vivo at 100 mg/kg ([1]; ip, 1 h, rat, 100 mg/kg, ip, 1 hr challenge delay): > 20%
COc1ccccc1Nc1sc(C(=O)c2ccccc2)c(N)c1C#N [Compound 1-30, 4-Amino-5-benzoyl-2-(2-methoxy-phenylamino)-thiophene-3-carbonitrile]	< 10 µM	< 10 µM	< 10 µM	< 10 µM	> 20%	–	–	–
COc1ccc(Nc2sc(C(=O)c3ccccc3)c(N)c2C#N)cc1 [Compound 1-32, 4-Amino-5-benzoyl-2-(4-methoxy-phenylamino)-thiophene-3-carbonitrile]	< 10 µM	< 10 µM	< 10 µM	< 10 µM	< 20%	–	–	–
COc1cccc(C(=O)c2sc(Nc3ccccc3)c(C#N)c2N)c1 [Compound 1-33, 4-Amino-5-(3-methoxy-benzoyl)-2-phenylamino-thiophene-3-carbonitrile]	< 10 µM	< 10 µM	< 10 µM	< 10 µM	> 20%	–	–	–
N#Cc1c(Nc2ccccc2)sc(C(=O)c2ccc(-c3ccccc3)cc2)c1N [Compound 1-34, 4-Amino-5-(biphenyl-4-carbonyl)-2-phenylamino-thiophene-3-carbontrile]	< 10 µM	< 10 µM	< 10 µM	< 10 µM	> 20%	–	–	–
N#Cc1c(Nc2ccccc2)sc(C(=O)c2ccc3ccccc3c2)c1N [Compound 1-35, 4-Amino-5-(naphthalene-2-carbonyl)-2-phenylamino-thiophene-3-carbonitrile]	< 10 µM	< 10 µM	< 10 µM	< 10 µM	< 20%	–	–	–
COc1ccc(C(=O)c2sc(Nc3ccc(Cl)cc3)c(C#N)c2N)cc1 [Compound 1-36, 4-Amino-2-(4-chloro-phenylamino)-5-(4-methoxy-benzoyl)-thiophene-3-carbonitrile]	< 10 µM	< 10 µM	< 10 µM	< 10 µM	–	–	–	inhibition in vivo at 100 mg/kg [1, 8]: < 20%
COc1ccc(C(=O)c2sc(Nc3ccc(F)cc3)c(C#N)c2N)cc1 [Compound 1-37, 4-Amino-2-(4-fluoro-phenylamino)-5-(4-methoxy-benzoyl)-thiophene-3-carbonitrile]	< 10 µM	< 10 µM	< 10 µM	< 10 µM	–	–	–	inhibition in vivo at 100 mg/kg [1, 8]: < 20%
N#Cc1c(Nc2ccc(OC(F)F)cc2)sc(C(=O)c2ccccc2)c1N [Compound 1-166, 4-Amino-5-benzoyl-2-(4-difluoromethoxy-phenylamino)-thiophene-3-carbonitrile]	–	< 10 µM	–	< 10 µM	< 20%	–	–	–
CSc1ccc(Nc2sc(C(=O)c3ccccc3)c(N)c2C#N)cc1 [Compound 1-167, 4-Amino-5-benzoyl-2-(4-methylsulfanyl-phenylamino)-thiophene-3-carbonitrile]	–	< 10 µM	–	< 10 µM	< 20%	–	–	–
COc1ccc(C(=O)c2sc(Nc3cccc(SC)c3)c(C#N)c2N)cc1 [Compound 1-177, 4-Amino-5-(4-methoxy-benzoyl)-2-(3-methylsulfanyl-phenylamino)-thiophene-3-carbonitrile]	–	< 10 µM	–	< 10 µM	< 20%	–	–	–
N#Cc1c(NCc2ccccc2)sc(C(=O)c2cc(-c3ccccc3)no2)c1N [Compound 1-193, 4-Amino-2-benzylamino-5-(3-phenyl-isoxazole-5-carbonyl)-thiophene-3-carbonitrile]	> 10 µM	–	> 10 µM	< 10 µM	< 20%	–	–	–
CC(C)C(C)Nc1sc(C(=O)c2cc(-c3ccc(Cl)c(Cl)c3)no2)c(N)c1C(N)=O (stereo not drawn) [Compound 1-248, 4-Amino-5-[3-(3,4-dichloro-phenyl)-isoxazole-5-carbonyl]-2-(1,2-dimethyl-propylamino)-thiophene-3-carboxylic acid amide]	< 10 µM	< 10 µM	> 10 µM	< 10 µM	–	–	–	–
CCOC(=O)c1cc(C(=O)c2sc(Nc3ccccc3F)nc2N)on1 [Compound 2-1, 5-[4-Amino-2-(2-fluoro-phenylamino)-thiazole-5-carbonyl]-isoxazole-3-carboxylic acid ethyl ester]	–	–	–	–	–	–	–	inhibition in vivo at 100 mg/kg [1, 9]: < 20%; IC50 (PDE4D; first part of Table 2B (2-1 to 2-22), read-out: IC 50 vs. indicated assay PDE4D): < 10 µM; IC50 ([4]; first part of Table 2B (2-1 to 2-22), read-out: IC 50 vs. indicated assay PDE4B): < 10 µM
CCOC(=O)c1ccc(Nc2nc(N)c(C(=O)c3ccccc3)s2)cc1 [Compound 2-33, 4-(4-Amino-5-benzoyl-thiazol-2-ylamino)-benzoic acid ethyl ester]	–	–	–	–	–	> 10 µM	< 10 µM	inhibition in vivo at 100 mg/kg [1, 9]: > 20%
COC(=O)c1cccc(Nc2nc(N)c(C(=O)c3ccccc3)s2)c1 [Compound 2-34, 3-(4-Amino-5-benzoyl-thiazol-2-ylamino)-benzoic acid methyl ester]	–	–	–	–	–	< 10 µM	< 10 µM	inhibition in vivo at 100 mg/kg [1, 9]: < 20%
CCOC(=O)c1ccc(Nc2nc(N)c(C(=O)c3ccc(OC)cc3)s2)cc1 [Compound 2-38, 4-[4-Amino-5-(4-methoxy-benzoyl)-thiazol-2-ylamino]-benzoic acid ethyl ester]	–	–	–	–	–	< 10 µM	< 10 µM	inhibition in vivo at 100 mg/kg [1, 12]: < 20%
COc1ccc(C(=O)c2sc(Nc3ccc(C(=O)O)cc3)nc2N)cc1 [Compound 2-40, 4-[4-Amino-5-(4-methoxy-benzoyl)-thiazol-2-ylamino]-benzoic acid]	–	–	–	–	–	< 10 µM	< 10 µM	inhibition in vivo at 100 mg/kg [1, 12]: < 20%
COc1ccc(C(=O)c2sc(Nc3c(Cl)cccc3Cl)nc2N)cc1 [Compound 2-41, [4-Amino-2-(2,6-dichloro-phenylamino)-thiazol-5-yl]-(4-methoxy-phenyl)-methanone]	–	–	–	–	–	< 10 µM	< 10 µM	inhibition in vivo at 100 mg/kg [1, 9]: < 20%
Nc1nc(Nc2c(Cl)cccc2Cl)sc1C(=O)C1CCCC1 [Compound 2-93, [4-Amino-2-(2,6-dichloro-phenylamino)-thiazol-5-yl]-cyclopentyl-methanone]	–	–	–	–	–	< 10 µM	< 10 µM	inhibition in vivo at 100 mg/kg [1, 12]: < 20%
